In US10183914B2 (BAYER CROPSCIENCE AKTIENGESELLSCHAFT, priority 2014, dated 2019):

Assays:
[1] = test system: Triticum aestivum (spring); assay: Pre-emergence herbicidal effect and crop plant compatibility; type: in vivo; conditions: 80 g/ha, 3 weeks
Procedure, shortened: (§1)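 Pre-emergence greenhouse test: seeds sown in sandy loam, compounds (WP or EC) sprayed onto covering soil as aqueous suspension/emulsion at 600 to 800 L/ha water with 0.2% wetting agent. Damage scored visually after 3 weeks versus untreated controls as percent efficacy (100% = plants dead).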

Zea mays [2] = assay: as above; type: in vivo; conditions: 3 weeks
Procedure, shortened: as §1

Stellaria media = assay: Pre-emergence herbicidal effect; type: in vivo; conditions: 3 weeks
Procedure, shortened: as §1

Alopecurus myosuroides [3] = assay: Pre-emergence herbicidal effect; type: in vivo; conditions: 3 weeks
Procedure, shortened: as §1

Setaria viridis [4] = assay: Pre-emergence herbicidal effect; type: in vivo; conditions: 3 weeks
Procedure, shortened: as §1

Echinochloa crus-galli [5] = assay: Pre-emergence herbicidal effect; type: in vivo; conditions: 3 weeks
Procedure, shortened: as §1

Avena fatua [6] = assay: Pre-emergence herbicidal effect; type: in vivo; conditions: 320 g/ha, 3 weeks
Procedure, shortened: as §1

Matricaria inodora = assay: Pre-emergence herbicidal effect; type: in vivo; conditions: 3 weeks
Procedure, shortened: as §1

Viola tricolor = assay: Pre-emergence herbicidal effect; type: in vivo; conditions: 3 weeks
Procedure, shortened: as §1

Veronica persica = assay: Pre-emergence herbicidal effect; type: in vivo; conditions: 3 weeks
Procedure, shortened: as §1

Polygonum convolvulus = assay: Pre-emergence herbicidal effect; type: in vivo; conditions: 3 weeks
Procedure, shortened: as §1

Lolium multiflorum [7] = assay: Pre-emergence herbicidal effect; type: in vivo; conditions: 3 weeks
Procedure, shortened: as §1

Amaranthus retroflexus = assay: Pre-emergence herbicidal effect; type: in vivo; conditions: 3 weeks
Procedure, shortened: as §1

[8] = logp (HCOOH), physicochemical characterization
[9] = test system: Triticum aestivum (spring); assay: Post-emergence herbicidal effect and crop plant compatibility; type: in vivo; conditions: visual scoring after about 3 weeks
Procedure, shortened: (§2)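 Greenhouse-grown plants at the one-leaf stage (2–3 weeks after sowing) were sprayed with WP or EC formulations in water at 600–800 L/ha plus 0.2% wetting agent. About 3 weeks later, efficacy was scored visually against untreated controls: 100% = plants dead, 0% = like control.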

Brassica napus = assay: as above; type: in vivo; conditions: 80 g/ha, visual scoring after about 3 weeks
Procedure, shortened: as §2

Zea mays [10] = assay: as above; type: in vivo; conditions: visual scoring after about 3 weeks
Procedure, shortened: as §2

Oryza sativa = assay: as above; type: in vivo; conditions: visual scoring after about 3 weeks
Procedure, shortened: as §2

Alopecurus myosuroides [11] = assay: Post-emergence herbicidal effect; type: in vivo; conditions: 320 g/ha, visual scoring after about 3 weeks
Procedure, shortened: as §2

Setaria viridis [12] = assay: Post-emergence herbicidal effect; type: in vivo; conditions: 320 g/ha (dose by row order of upper half), scoring after about 3 weeks
Procedure, shortened: as §2

Echinochloa crus-galli [13] = assay: Post-emergence herbicidal effect; type: in vivo; conditions: visual scoring after about 3 weeks
Procedure, shortened: as §2

Avena fatua [14] = assay: Post-emergence herbicidal effect; type: in vivo; conditions: 320 g/ha, visual scoring after about 3 weeks
Procedure, shortened: as §2

Ipomoea purpurea = assay: Post-emergence herbicidal effect; type: in vivo; conditions: 320 g/ha (dose by row order of upper half), scoring after about 3 weeks
Procedure, shortened: as §2

Lolium multiflorum [15] = assay: Post-emergence herbicidal effect; type: in vivo; conditions: 320 g/ha, visual scoring after about 3 weeks
Procedure, shortened: as §2

Cyperus esculentus = assay: Pre-emergence herbicidal effect; type: in vivo; conditions: 3 weeks
Procedure, shortened: as §1

SMILES	TRZAS herbicidal activity in percent [1] [%]	ZEAMX herbicidal activity in percent (Zea mays [2]; 80 g/ha) [%]	STEME herbicidal activity in percent (Stellaria media; 80 g/ha) [%]	STEME herbicidal activity in percent (Stellaria media; 320 g/ha) [%]	ALOMY herbicidal activity in percent (Alopecurus myosuroides [3]; 320 g/ha) [%]	SETVI herbicidal activity in percent (Setaria viridis [4]; 320 g/ha) [%]	ECHCG herbicidal activity in percent (Echinochloa crus-galli [5]; 80 g/ha) [%]	ECHCG herbicidal activity in percent (Echinochloa crus-galli [5]; 320 g/ha) [%]	MATIN herbicidal activity in percent (Matricaria inodora; 320 g/ha) [%]	VIOTR herbicidal activity in percent (Viola tricolor; 80 g/ha) [%]	VIOTR herbicidal activity in percent (Viola tricolor; 320 g/ha) [%]	VERPE herbicidal activity in percent (Veronica persica; 80 g/ha) [%]	VERPE herbicidal activity in percent (Veronica persica; 320 g/ha) [%]	POLCO herbicidal activity in percent (Polygonum convolvulus; 320 g/ha) [%]	LOLMU herbicidal activity in percent (Lolium multiflorum [7]; 320 g/ha) [%]	AMARE herbicidal activity in percent (Amaranthus retroflexus; 80 g/ha) [%]	AMARE herbicidal activity in percent (Amaranthus retroflexus; 320 g/ha) [%]	logp (HCOOH) [8]	post-emergence efficacy TRZAS ([9]; 80 g/ha) [%]	post-emergence efficacy ZEAMX (Zea mays [10]; 80 g/ha) [%]	also measured
CC1CC(=O)c2cnc(N[C@@H]3CCCc4ccccc43)nc2C1 (stereo partly shown) [2.26]	0	0	100	100	90	90	80	100	100	90	100	80	100	100	100	100	100	oily; logp (HCOOH): 3.45; 1H-NMR (CDCl3, 400 MHZ, δ in ppm): 1.15 (m, 3H, CH3);	0	0	AVEFA herbicidal activity in percent (Avena fatua [6]): 90%; post-emergence efficacy TRZAS ([9]; 320 g/ha): 0%; post-emergence efficacy BRSNW (Brassica napus): 20%; post-emergence efficacy ZEAMX (Zea mays [10]; 320 g/ha): 0%; post-emergence efficacy ORYSA (Oryza sativa; 80 g/ha): 0%; post-emergence efficacy ORYSA (Oryza sativa; 320 g/ha): 0%
CC(=O)c1cnc(N[C@H]2c3cc(C)ccc3C[C@@H]2C)nc1C [1.26]	0	0	100	100	90	100	100	100	100	100	100	100	100	100	100	100	100	solid; logp (HCOOH): 3.56; 1H-NMR (CDCl3, 400 MHZ, δ in ppm): 1.20 (d, 3H,	0	0	ZEAMX herbicidal activity in percent (Zea mays [2]; 320 g/ha): 0%; post-emergence efficacy ALOMY (Alopecurus myosuroides [11]): 90%; post-emergence efficacy SETVI (Setaria viridis [12]): 90%; post-emergence efficacy ECHCG (Echinochloa crus-galli [13]; 80 g/ha): 90%; post-emergence efficacy ECHCG (Echinochloa crus-galli [13]; 320 g/ha): 100%; post-emergence efficacy AVEFA (Avena fatua [14]): 80%; post-emergence efficacy PHBPU (Ipomoea purpurea): 90%; post-emergence efficacy LOLMU (Lolium multiflorum [15]): 80%; ALOMY herbicidal activity in percent (Alopecurus myosuroides [3]; 80 g/ha): 90%; SETVI herbicidal activity in percent (Setaria viridis [4]; 80 g/ha): 100%; MATIN herbicidal activity in percent (Matricaria inodora; 80 g/ha): 100%; POLCO herbicidal activity in percent (Polygonum convolvulus; 80 g/ha): 100%; LOLMU herbicidal activity in percent (Lolium multiflorum [7]; 80 g/ha): 80%; CYPES herbicidal activity in percent (Cyperus esculentus; 80 g/ha): 80%; CYPES herbicidal activity in percent (Cyperus esculentus; 320 g/ha): 80%; post-emergence efficacy ZEAMX (Zea mays [10]; 320 g/ha): 0%; post-emergence efficacy ORYSA (Oryza sativa; 80 g/ha): 0%; post-emergence efficacy ORYSA (Oryza sativa; 320 g/ha): 0%
